What was measured:
LTC4S [1] = target: T1, LTC4S (Homo sapiens (Human), UniProt Q16873); assay: Human LTC4S enzymatic assay (HTRF detection of LTC4-Me); type: biochemical
Experimental: A. Human LTC4S Enzymatic Assay:
LTC4 synthase catalyzes the conversion of Leukotriene A4 (LTA4) to Leukotriene C4 (LTC4) in the presence of reduced glutathione (GSH) as a co-substrate. For compound testing, compounds are delivered as 10 mM stock solutions in 90% DMSO in matrix tubes. From this, a 1:3 dilution dose response series is prepared with a starting concentration of 30 μM to 0.1 nM. For the enzymatic assay 97.5 nL of compound/DMSO solution is transferred to each well and 5 μL enzyme solution (assay buffer: 50 mM bis-tris propane pH 7.3, 250 mM NaCl, 10 mM MgCl2, 0.001% MGN3) is added to the wells. […] The enzyme compound mixture is incubated at room temperature for 15 minutes prior to the addition of 5 μL substrate solution. […] A final substrate concentration of 400 μM GSH and 5 μM LTA4-Me is chosen.
The LTA4-Me is obtained commercially in 2% triethylamine/hexane solvent. As this solvent is incompatible with the HTRF assay it has to be exchanged with DMSO according to following procedure: add 50 μL of 100% DMSO to 50 μL LTA4-Me (3 mM) in a 2 mL Eppendorf tube and mix gently by inverting the tube. The triethylamine/hexane is evaporated under a constant argon flux at room temperature. The DMSO-LTA4-Me (3 mM) is aliquoted and stored at −20° C. for not longer than 4 weeks, as it is not stable in DMSO due to its oxidizing properties.
Upon addition of the substrate, the plate is immediately placed on a shaker for 5 min at room temperature. Immediately after the 5 min incubation 5 μL of H2O2 solution is added to all wells to stop the reaction. The plate contents are mixed before the addition of detection reagents. […] For the detection of the product of the enzymatic reaction LTC4-Me, the Cisbio LTC4-HTRF kit is used as the assay is compatible with the detection of LTC4-Me. 5 μL of diluted LTC4-d2 conjugate (according to manufacturer's protocol) are added to all wells of the assay plate and the contents gently mixed and incubated for 5 minutes at room temperature. […] The percent inhibition for each point of an inhibition curve is calculated after data interpolation using the LTC4-Me standard curve, to convert the HTRF signal to the amount of LTC4-Me produced within the LTC4S catalyzed reaction on each plate. The data is analyzed using parametric curve fitting to determine IC50 values of LTC4S inhibitors.

LTC4S [2] = target: T1, LTC4S; assay: Human whole blood HTRF assay (LTC4 release after calcium ionophore A23187); type: cell-based; details: human whole blood diluted 1:3, 4 h incubation, calcium ionophore A23187 stimulation, LTC4 by HTRF; read-out: human whole blood HTRF IC50
[3] = 0.75 nM enzyme, 400 μM GSH, 5 μM LTA4-Me, 15 min pre-incubation, read-out: human LTC4S IC50 (enzymatic assay)

Row | Molecule | IC50 (LTC4S [1]; [3]) [nM] | IC50 (LTC4S [2]) [nM] | IC50 (LTC4S [1]) [nM]
1 | O=C1CCCC2(CCN(c3noc(C45CC(C(F)(F)F)(C4)C5)n3)CC2)N1c1ccc(Cl)c(F)c1 [Example 7, 1-(4-chloro-3-fluorophenyl)-9-(5-(3-(trifluoromethyl)bicyclo[1.1.1]pentan-1-yl)-1,2,4-oxadiazol-3-yl)-1,9-diazaspiro[5.5]undecan-2-one] | 76 | 100 | –
2 | O=C1CCCC2(CCN(c3ccn4nc(C(F)(F)F)cc4n3)CC2)N1c1ccc(Cl)c(F)c1 [Example 5, 1-(4-chloro-3-fluorophenyl)-9-(2-(trifluoromethyl)pyrazolo[1,5-a]pyrimidin-5-yl)-1,9-diazaspiro[5.5]undecan-2-one] | 5 | 10 | –
3 | O=C1CCCC2(CCN(c3cnn(-c4ccc(F)cc4)n3)CC2)N1c1ccc(Cl)c(F)c1 [Example 31, 1-(4-chloro-3-fluorophenyl)-9-(2-(4-fluorophenyl)-2H-1,2,3-triazol-4-yl)-1,9-diazaspiro[5.5]undecan-2-one] | 15 | 120 | –
4 | O=C1CCCC2(CCN(c3cc(-c4ccc(F)cc4)cc[n+]3[O-])CC2)N1c1ccc(Cl)c(F)c1 [Example 33, 2-(1-(4-chloro-3-fluorophenyl)-2-oxo-1,9-diazaspiro[5.5]undecan-9-yl)-4-(4-fluorophenyl)pyridine 1-oxide] | 24 | 56 | –
5 | O=C1CCCC2(CCN(c3ccn(-c4ccc(F)cc4)n3)CC2)N1c1ccc(Cl)c(F)c1 [Example 30, 1-(4-chloro-3-fluorophenyl)-9-(1-(4-fluorophenyl)-1H-pyrazol-3-yl)-1,9-diazaspiro[5.5]undecan-2-one] | 13 | 360 | –
6 | O=C1CCCC2(CCN(c3nsc(N4CC(C(F)(F)F)C4)n3)CC2)N1c1ccc(Cl)c(F)c1 [Example 24, 1-(4-chloro-3-fluorophenyl)-9-(5-(3-(trifluoromethyl)azetidin-1-yl)-1,2,4-thiadiazol-3-yl)-1,9-diazaspiro[5.5]undecan-2-one] | 33 | 110 | –
7 | O=C1CCCC2(CCN(c3noc([C@H]4C[C@@H]4C(F)(F)F)n3)CC2)N1c1ccc(Cl)c(F)c1 [Example 6b, 1-(4-chloro-3-fluorophenyl)-9-(5-((1S,2S)-2-(trifluoromethyl)cyclopropyl)-1,2,4-oxadiazol-3-yl)-1,9-diazaspiro[5.5]undecan-2-one, or 1-(4-chloro-3-fluorophenyl)-9-(5-((1R,2R)-2-(trifluoromethyl)cyclopropyl)-1,2,4-oxadiazol-3-yl)-1,9-diazaspiro[5.5]undecan-2-one] | 44 | – | –
8 | O=C1CCCC2(CCN(c3cc(OCC(F)(F)F)ccn3)CC2)N1c1ccc(Cl)c(F)c1 [Example 81, 1-(4-chloro-3-fluorophenyl)-9-(4-(2,2,2-trifluoroethoxy)pyridin-2-yl)-1,9-diazaspiro[5.5]undecan-2-one] | 13 | 72 | –
9 | O=C1CCCC2(CCN(c3nc(-c4ccc(F)cc4)n[nH]3)CC2)N1c1ccc(Cl)c(F)c1 [Example 26, 1-(4-chloro-3-fluorophenyl)-9-(3-(4-fluorophenyl)-1H-1,2,4-triazol-5-yl)-1,9-diazaspiro[5.5]undecan-2-one] | 16 | 110 | –
10 | O=C1CCCC2(CCN(c3cccc(-c4ccc(F)cc4)n3)CC2)N1c1ccc(Cl)cc1 [Example 32, 1-(4-chlorophenyl)-9-(6-(4-fluorophenyl)pyridin-2-yl)-1,9-diazaspiro[5.5]undecan-2-one] | 7 | 170 | –
11 | O=C1CCCC2(CCN(c3ncnc(N4CCCC4)n3)CC2)N1c1ccc(Cl)c(F)c1 [Example 38, 1-(4-chloro-3-fluorophenyl)-9-(4-(pyrrolidin-1-yl)-1,3,5-triazin-2-yl)-1,9-diazaspiro[5.5]undecan-2-one] | 8 | 86 | –
12 | 1-(4-chloro-3-fluorophenyl)-9-(5-((1R,2R)-2-(trifluoromethyl)cyclopropyl)-1,2,4-oxadiazol-3-yl)-1,9-diazaspiro[5.5]undecan-2-one, or 1-(4-chloro-3-fluorophenyl)-9-(5-((1S,2S)-2-(trifluoromethyl)cyclopropyl)-1,2,4-oxadiazol-3-yl)-1,9-diazaspiro[5.5]undecan-2-one [Example 6a] | 190 | 310 | –
13 | O=C1CCCC2(CCN(c3ncnc(N4CCCC4)c3F)CC2)N1c1ccc(Cl)c(F)c1 [Example 36, 1-(4-chloro-3-fluorophenyl)-9-(5-fluoro-6-(pyrrolidin-1-yl)pyrimidin-4-yl)-1,9-diazaspiro[5.5]undecan-2-one] | 6 | 44 | –
14 | O=C1CCCC2(CCN(c3nnc(-c4ccccc4)o3)CC2)N1c1ccc(Cl)c(F)c1 [Example 28, 1-(4-chloro-3-fluorophenyl)-9-(5-phenyl-1,3,4-oxadiazol-2-yl)-1,9-diazaspiro[5.5]undecan-2-one] | 110 | 450 | –
15 | O=C1CCCC2(CCN(c3nnn(-c4ccccc4)n3)CC2)N1c1ccc(Cl)c(F)c1 [Example 22, 1-(4-chloro-3-fluorophenyl)-9-(2-phenyl-2H-tetrazol-5-yl)-1,9-diazaspiro[5.5]undecan-2-one] | 11 | 530 | –
16 | O=C1CCCC2(CCN(c3cc(OCC(F)F)ncn3)CC2)N1c1ccc(Cl)c(F)c1 [Example 84, 1-(4-chloro-3-fluorophenyl)-9-(6-(2,2-difluoroethoxy)pyrimidin-4-yl)-1,9-diazaspiro[5.5]undecan-2-one] | 8 | 9 | –
17 | O=C1CCCC2(CCN(c3nc(N4CCCC4)nnc3O)CC2)N1c1ccc(Cl)c(F)c1 [Example 8, 1-(4-chloro-3-fluorophenyl)-9-(6-hydroxy-3-(pyrrolidin-1-yl)-1,2,4-triazin-5-yl)-1,9-diazaspiro[5.5]undecan-2-one] | 7 | – | –
18 | O=C1CCCC2(CCN(c3ncc4ccc(C(F)(F)F)cc4n3)CC2)N1c1ccc(Cl)c(F)c1 [Example 4, 1-(4-chloro-3-fluorophenyl)-9-(7-(trifluoromethyl)quinazolin-2-yl)-1,9-diazaspiro[5.5]undecan-2-one] | 7 | 50 | –
19 | O=C1CCCC2(CCN(c3ncn(-c4ccc(F)cc4)n3)CC2)N1c1ccc(Cl)c(F)c1 [Example 1, 1-(4-chloro-3-fluorophenyl)-9-(1-(4-fluorophenyl)-1H-1,2,4-triazol-3-yl)-1,9-diazaspiro[5.5]undecan-2-one] | 6 | 13 | –
20 | O=C1CCCC2(CCN(c3nsc(N4CCC(F)(F)C4)n3)CC2)N1c1ccc(Cl)c(F)c1 [Example 23, 1-(4-chloro-3-fluorophenyl)-9-(5-(3,3-difluoropyrrolidin-1-yl)-1,2,4-thiadiazol-3-yl)-1,9-diazaspiro[5.5]undecan-2-one] | 61 | 45 | –
21 | O=C1CCCC2(CCN(c3nccc(N4CC5(CC5)C4)n3)CC2)N1c1ccc(Cl)c(F)c1 [Example 35b, 9-(4-(5-azaspiro[2.3]hexan-5-yl)pyrimidin-2-yl)-1-(4-chloro-3-fluorophenyl)-1,9-diazaspiro[5.5]undecan-2-one] | – | – | 3
22 | O=C1CCCC2(CCN(c3nc4ccc(C(F)(F)F)cc4o3)CC2)N1c1ccc(Cl)c(F)c1 [Example 2, 1-(4-chloro-3-fluorophenyl)-9-(6-(trifluoromethyl)benzo[d]oxazol-2-yl)-1,9-diazaspiro[5.5]undecan-2-one] | 36 | – | –

From patent US11708366B2, “Heteroaryl substituted spiropiperidinyl derivatives and pharmaceutical uses thereof” (Novartis AG, priority 2020, dated 2023)
